Tested on: annual bluegrass (Poa annua L.)
Test: Whole plant non-target site resistance experiment, foramsulfuron vs sulfometuron (control and plant height 28 days after treatment)
Type: in vivo
Method: A second experiment was conducted to determine if non-target mechanisms could confer resistance to ALS inhibiting herbicides in our annual bluegrass population, POAAN-R3. ALS-resistant (RP1–RP8) and susceptible (S) plants were cultured in plastic conical containers under previously described glasshouse conditions for 28 days before being treated with foramsulfuron (29 g ha^−1) or sulfometuron-methyl (Oust XP; Dupont Professional Products. Wilmington, DE, USA) at 105 g ai ha^−1. Sulfometuron-methyl is an ALS inhibiting herbicide not metabolized by cytochrome P450 monooxygenases; therefore, it can be used to discern if weed populations survive ALS inhibiting herbicide treatment via target- or non-target site based mechanisms (Christopher et al. [1992]). Per label recommendations, sulfometuron-methyl included non-ionic surfactant at 0.25 % v/v. Treatments were mixed in water carrier applied in an enclosed spray chamber, as previously described, on 13 March 2015.
Annual bluegrass control was visually assessed on a 0 (i.e., no control) to 100 % (i.e., complete kill) scale relative to the non-treated 28 days after treatment. After all control data had been collected, plant height data were collected using a ruler placed at the soil surface of each plastic conical container and recording the distance to the tip of the bud leaf. Treatments were arranged as a 9 × 3 factorial with nine plant selections (RP1–RP8, S) and three herbicides (foramsulfuron, sulfometuron-methyl, non-treated) in a completely randomized design with four replications and repeated in separate glasshouses during March 2015.

COc1cc(OC)nc(NC(=O)NS(=O)(=O)c2cc(NC=O)ccc2C(=O)N(C)C)n1 [Foramsulfuron]
Annual bluegrass control RP1 (RP1, 28 days after treatment, minimum of two tillers, foramsulfuron 29, sulfometuron 105 g ha^−1): 8%
Annual bluegrass height RP1 (RP1, plant height 28 days after treatment, foramsulfuron 29, sulfometuron 105 g ha^-1, non-treated 118 mm): 77 mm
Annual bluegrass control RP2 (RP2, 28 days after treatment, minimum of two tillers, foramsulfuron 29, sulfometuron 105 g ha^−1): 2%
Annual bluegrass height RP2 (RP2, plant height 28 days after treatment, foramsulfuron 29, sulfometuron 105 g ha^-1, non-treated 129 mm): 74 mm
Annual bluegrass control RP3 (RP3, 28 days after treatment, minimum of two tillers, foramsulfuron 29, sulfometuron 105 g ha^−1): 5%
Annual bluegrass height RP3 (RP3, plant height 28 days after treatment, foramsulfuron 29, sulfometuron 105 g ha^-1, non-treated 173 mm): 100 mm
Annual bluegrass control RP4 (RP4, 28 days after treatment, minimum of two tillers, foramsulfuron 29, sulfometuron 105 g ha^−1): 11%
Annual bluegrass height RP4 (RP4, plant height 28 days after treatment, foramsulfuron 29, sulfometuron 105 g ha^-1, non-treated 140 mm): 85 mm
Annual bluegrass control RP5 (RP5, 28 days after treatment, minimum of two tillers, foramsulfuron 29, sulfometuron 105 g ha^−1): 8%
Annual bluegrass height RP5 (RP5, plant height 28 days after treatment, foramsulfuron 29, sulfometuron 105 g ha^-1, non-treated 114 mm): 75 mm
Annual bluegrass control RP6 (RP6, 28 days after treatment, minimum of two tillers, foramsulfuron 29, sulfometuron 105 g ha^−1): 46%
Annual bluegrass height RP6 (RP6, plant height 28 days after treatment, foramsulfuron 29, sulfometuron 105 g ha^-1, non-treated 106 mm): 68 mm
Annual bluegrass control RP7 (RP7, 28 days after treatment, minimum of two tillers, foramsulfuron 29, sulfometuron 105 g ha^−1): 5%
Annual bluegrass height RP7 (RP7, plant height 28 days after treatment, foramsulfuron 29, sulfometuron 105 g ha^-1, non-treated 125 mm): 75 mm
Annual bluegrass control RP8 (RP8, 28 days after treatment, minimum of two tillers, foramsulfuron 29, sulfometuron 105 g ha^−1): 3%
Annual bluegrass height RP8 (RP8, plant height 28 days after treatment, foramsulfuron 29, sulfometuron 105 g ha^-1, non-treated 132 mm): 94 mm
Annual bluegrass control S (susceptible (S), 28 days after treatment, minimum of two tillers, foramsulfuron 29, sulfometuron 105 g ha^−1): 93%
Annual bluegrass height S (susceptible (S), plant height 28 days after treatment, foramsulfuron 29, sulfometuron 105 g ha^-1, non-treated 111 mm): 18 mm

From paper PMC4698308, “A new amino acid substitution (Ala-205-Phe) in acetolactate synthase (ALS) confers broad spectrum resistance to ALS-inhibiting herbicides” (Planta, 2015)
